From patent US20030135023A1, “Peptide structures useful for competitive modulation of dipeptidyl peptidase IV catalysis” (priority 2001, published 2003)
“And” between values parts separate entries of the source, which are not always exact repeats. Equal values may be shown once. Read-outs that look alike come from different tables or passages of the source. Square brackets hold non-standard residues; d marks the D form. Peptide text beside a SMILES is read from it. Tle = CC(C)(C)[C@H](N)C(=O)O

Legend:
plasma DP IV = molecular target: T1, plasma DP IV (Rattus norvegicus, UniProt P14740); assay: Plasma DP IV activity after intravasal and oral administration in Wistar rats; format: in vivo; details: for inhibition at 100 mg/kg: rat, Wistar rats
T1 construct: The assay mixture consisted of 80 μl reagent and 20 μl plasma; from tissue; host or cells: plasma of Wistar rats
T1 sequence (P14740 37-767 limits assumed): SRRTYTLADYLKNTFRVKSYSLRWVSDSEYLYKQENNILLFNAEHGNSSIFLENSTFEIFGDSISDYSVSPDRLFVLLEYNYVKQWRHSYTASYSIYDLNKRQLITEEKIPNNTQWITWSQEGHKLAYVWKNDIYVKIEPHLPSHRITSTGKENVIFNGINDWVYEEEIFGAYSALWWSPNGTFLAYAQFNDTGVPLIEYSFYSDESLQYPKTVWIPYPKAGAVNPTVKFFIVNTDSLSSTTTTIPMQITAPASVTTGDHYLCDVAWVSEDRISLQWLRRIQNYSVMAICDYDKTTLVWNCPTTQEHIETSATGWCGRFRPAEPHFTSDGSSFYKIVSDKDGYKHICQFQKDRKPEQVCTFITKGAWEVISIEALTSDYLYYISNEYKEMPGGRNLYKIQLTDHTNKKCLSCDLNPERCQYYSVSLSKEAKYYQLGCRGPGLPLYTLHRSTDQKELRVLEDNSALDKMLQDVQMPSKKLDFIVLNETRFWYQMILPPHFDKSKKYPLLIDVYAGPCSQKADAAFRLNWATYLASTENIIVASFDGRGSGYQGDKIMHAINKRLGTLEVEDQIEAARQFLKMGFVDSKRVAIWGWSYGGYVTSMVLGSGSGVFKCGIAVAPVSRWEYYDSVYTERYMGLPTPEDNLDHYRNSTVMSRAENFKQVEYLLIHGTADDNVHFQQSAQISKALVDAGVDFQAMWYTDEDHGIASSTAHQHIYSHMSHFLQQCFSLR
Method: Rats with intact catheter function were given the test substances intravasal (intraarterial) or oral, respectively, in random order (N=3 Wistar rats in each group). As positive control, […]. isoleucine thiazolidine*fumarate were administered intravasal.
After overnight fasting, 100 μl samples of heparinized arterial blood were collected at −30, −5, and 0 min into ice-cooled Eppendorf tubes (see below). The test substances were dissolved freshly in 1.0 ml saline (0.154 mol/l) and were given at 0 min either oral via a feeding tube ([…], 75 mm; Fine Science Tools, Heidelberg, Germany) or intravasal. For the intravasal route, the catheter was immediately flushed with 30 μl saline and an additional 1 ml of saline was given orally via the feeding tube.
Arterial blood samples were taken thereafter at 5, 10 (only in a limited number of experiments), 20, 40, 60 and 120 min from the carotid catheter of the conscious unrestrained rats and were always given into ice cooled Eppendorf tubes (Eppendorf-Netheler-Hinz, Hamburg, Germany) filled with 10 μl 1 M citrate buffer pH 3.0 for prevention of further hydrolysis of tripeptides by plasma DP IV activity. Eppendorf tubes were centrifuged immediately (12000 rpm for 2 min, Hettich Zentrifuge EBA 12, Tuttlingen; Germany): The plasma fractions were store on ice until analysis or were deeply frozen at −20 ° C. until analysis.
Plasma DP IV activity: The assay mixture consisted of 80 μl reagent and 20 μl plasma. Kinetic measurements of the formation of the yellow product 4-nitroaniline were performed at 390 nm for 1 min at 30° C. after 2 min pre-incubation at the same temperature. The activity was expressed as arbitrary units [AU] and DP IV activity [mU/ml].
The absolute values of plasma DP IV activity, the relative change of plasma DP IV activity and the time and extent of maximal inhibition were calculated. Data presentation included the presentation of area under the curve (AUC), which was used for evaluation of extent of inhibition of plasma DP IV activity during the two hours of observation. AUC was calculated using the trapezoidal rule.
To compare relative changes of parameters under the conditions of different initial values of DP IV activity an uniform standardised mean (values) was set up at the beginning of the test (see Figures and Tables).
Statistical evaluations were performed with Microsoft Excel® 97. All variables are presented as mean and standard deviation (SD). Treatment groups were compared by Student's t-test, within-group changes by paired t-test. Two-tailed values of p<0.05 were considered significant.

[1] = tested on: diabetic Zucker rats (fa/fa); assay: Oral glucose tolerance test (OGTT) in diabetic Zucker rats; format: in vivo; details: 100 mg/kg b.w. p.o.
Method: N=30 male Zucker rats (fa/fa), mean age 11 weeks (5-12 weeks), mean body weight 350 g (150-400 g), were purchased from Charles River (Sulzfeld, Germany). They were kept for >12 weeks until all the fatty Zucker rats had the characteristics of manifest Diabetes mellitus.
After overnight fasting, the fatty Zucker rats were given placebo, positive control and test substance, respectively, via feeding tube orally (15 G, 75 mm; Fine Science Tools, Heidelberg, Germany) at −10 min. An oral glucose tolerance test (OGTT) with 2 g/kg b.w. glucose as a 40% solution (B. Braun Melsungen, Melsungen, Germany) was implemented at ±0 min. The glucose was administered via a second feeding tube. Arterial blood samples from the carotid catheter were collected at −30 min, −15 min, ±0 min and at 5, 10, 15, 20, 30, 40, 60, 90 and 120 min into 20 μl glass capillaries, which were placed in standard tubes filled with 1 ml solution for hemolysis (blood glucose measurement).
Blood glucose: Glucose levels were measured using the glucose oxidase procedure (Super G Glukosemeβgerät; Dr. Müller Gerätebau, Freital, Germany).

[2] = oral 100 mg/kg b.w., individual animals, 100 mg/kg

Plasma DP IV activity (plasma DP IV; oral 100 mg/kg b.w., 2.5 min, Mean): 17.25 mU/ml
Plasma DP IV activity (plasma DP IV; oral 100 mg/kg b.w., 2.5 min, Standardized Mean): 17.08 mU/ml
Plasma DP IV activity (plasma DP IV; oral 100 mg/kg b.w., 5 min, Mean): 19.15 mU/ml
Plasma DP IV activity (plasma DP IV; oral 100 mg/kg b.w., 5 min, Standardized Mean): 18.98 mU/ml
Plasma DP IV activity (plasma DP IV; oral 100 mg/kg b.w., 7.5 min, Mean): 17.25 mU/ml
Plasma DP IV activity (plasma DP IV; oral 100 mg/kg b.w., 7.5 min, Standardized Mean): 17.08 mU/ml
Plasma DP IV activity (plasma DP IV; oral 100 mg/kg b.w., 10 min, Mean): 21.64 mU/ml
Plasma DP IV activity (plasma DP IV; oral 100 mg/kg b.w., 10 min, Standardized Mean): 21.46 mU/ml
Plasma DP IV activity (plasma DP IV; oral 100 mg/kg b.w., 15 min, Mean): 21.05 mU/ml
Plasma DP IV activity (plasma DP IV; oral 100 mg/kg b.w., 15 min, Standardized Mean): 20.88 mU/ml
Plasma DP IV activity (plasma DP IV; oral 100 mg/kg b.w., 20 min, Mean): 17.98 mU/ml
Plasma DP IV activity (plasma DP IV; oral 100 mg/kg b.w., 20 min, Standardized Mean): 17.81 mU/ml
Plasma DP IV activity (plasma DP IV; oral 100 mg/kg b.w., 20 min, individual animals, 100 mg/kg): 25.00 mU/ml and 10.97 mU/ml
Plasma DP IV activity (plasma DP IV; oral 100 mg/kg b.w., 40 min, Mean): 19.30 mU/ml
Plasma DP IV activity (plasma DP IV; oral 100 mg/kg b.w., 40 min, Standardized Mean): 19.12 mU/ml
Plasma DP IV activity (plasma DP IV; oral 100 mg/kg b.w., 60 min, Mean): 19.44 mU/ml
Plasma DP IV activity (plasma DP IV; oral 100 mg/kg b.w., 60 min, Standardized Mean): 19.27 mU/ml
Plasma DP IV activity (plasma DP IV; oral 100 mg/kg b.w., 60 min, individual animals, 100 mg/kg): 21.93 mU/ml (2×) and 14.47 mU/ml
Plasma DP IV activity (plasma DP IV; oral 100 mg/kg b.w., 120 min, Mean): 20.91 mU/ml
Plasma DP IV activity (plasma DP IV; oral 100 mg/kg b.w., 120 min, Standardized Mean): 20.73 mU/ml
Plasma DP IV activity (plasma DP IV; oral 100 mg/kg b.w., 120 min, individual animals, 100 mg/kg): 16.23 mU/ml and 23.25 mU/ml (2×)
DP IV-AUC (plasma DP IV; oral 100 mg/kg b.w., Mean): −51.5 AU · min
Drop of plasma DP IV activity (plasma DP IV; oral 100 mg/kg b.w., Mean): 10.53 mU/ml
DP IV-AUC0-120 min (plasma DP IV; oral 100 mg/kg b.w., p<0.05 vs. intra-vasal): −336±162 mU·min·ml^−1
inhibition at 100 mg/kg (plasma DP IV; iv, i.v., 100 mg/kg, read-out: DPIV inhibition at tmax, i.v.): 71%
inhibition at 100 mg/kg (plasma DP IV; po, p.o., 100 mg/kg, read-out: DPIV inhibition at tmax, p.o.): 28%
Compound: CC[C@H](C)[C@H](NC(=O)[C@@H]1CCCN1C(=O)[C@@H](N)C(C)(C)C)C(=O)O [t-butyl-Gly-Pro-Ile] (H-[Tle]-Pro-Ile-OH; N-terminus and C-terminus assumed)
Plasma DP IV activity (plasma DP IV; oral 100 mg/kg b.w., 2.5 min, individual animals, 100 mg/kg): 20.61 mU/ml and 9.21 mU/ml and 21.93 mU/ml
Plasma DP IV activity (plasma DP IV; oral 100 mg/kg b.w., 5 min, individual animals, 100 mg/kg): 23.68 mU/ml and 13.16 mU/ml and 20.61 mU/ml
Plasma DP IV activity (plasma DP IV; oral 100 mg/kg b.w., 7.5 min, individual animals, 100 mg/kg): 21.05 mU/ml and 12.28 mU/ml and 18.42 mU/ml
Plasma DP IV activity (plasma DP IV; oral 100 mg/kg b.w., 10 min, individual animals, 100 mg/kg): 21.93 mU/ml and 25.88 mU/ml and 17.11 mU/ml
Plasma DP IV activity (plasma DP IV; oral 100 mg/kg b.w., 15 min, individual animals, 100 mg/kg): 29.39 mU/ml and 15.79 mU/ml and 17.98 mU/ml
Plasma DP IV activity (plasma DP IV; oral 100 mg/kg b.w., 40 min, individual animals, 100 mg/kg): 21.49 mU/ml and 8.77 mU/ml and 27.63 mU/ml
DP IV-AUC (plasma DP IV; [2]): 155.2 AU · min and −961.1 AU · min and 651.3 AU · min
Drop of plasma DP IV activity (plasma DP IV; [2]): 6.58 mU/ml and 23.25 mU/ml and 1.75 mU/ml
Improvement of glucose tolerance ([1]; AUC test compound vs AUC Control): 14.8%
AUC test compound (glucose, OGTT) ([1]; OGTT 2 g/kg glucose): 653.2 mmol·min/L
